“Also recorded” adds a separate entry of the source.
Columns and labels:
[1] = tested on: EMT-related markers such as β-catenin, zeb1, N-cadherin, and snail; assay: Western blotting of EMT-related markers; assay type: cell-based, human; conditions: tumorspheres
Procedure: (§1) For Western blotting, 20 μg total protein from each sample was treated with Laemmli sample buffer and heated at 100° C. for 5 minutes. This was then loaded into each well and was resolved by 8% SDS-polyacrylamide gel electrophoresis (PAGE) and eleetroblotted onto nitrocellulose membranes (GE Healthcare life-Sciences). Membranes were blocked in 5% non-fat dry milk in TBS-T, and incubated with antibodies for AMPK-mTOR pathway-related proteins, stemness markers, and EMT-related markers overnight at 4° C., and then probed with peroxidase-conjugated goat anti-rabbit IgG (1:2000, santa cruz) for 1 hour at room temperature. The washes were repeated and the membrane was developed with a chemiluminescent agent (ECL; Amersham Life Science, Inc.). Band densities were measured using TINA image software (Raytest, Straubenhardt, Germany).

GSC11 and X01 cells = assay: Neurosphere formation assay; assay type: cell-based, human; conditions: GSC11 and X01, cultured for 3 weeks
Procedure: For Neurosphere formation assay, the GSC11 and X01 cells were cultured in medium consisting of DMEM/F-12 with 2% 1×B27, 20 ng/ml 0.02% bFGF, 20 ng/ml 0.02% EGF, and 1% antibiotic-antimycotic solution (100×, Gibco, Invitrogen Korea, Seoul, South Korea). The cells were cultured in different conditions for 3 weeks. […] Photographs of cells were obtained with a digital camera (DP70 Digital Microscope Camera; Olympus), using DP Controller software (Olympus).

[2] = tested on: stemness markers such as nestin, CD133, Sox-2, Notch 1, Notch 2, and Oct3/4 in GSC11 or X01; assay: Western blotting of stemness markers; assay type: cell-based, human
Procedure: as §1

GSC11 and X01 = assay: Neuro-glial differentiation (neuronal marker expression); assay type: cell-based, human
[3] = tested on: AMPK and mTOR pathway of GSC11 and X01 cells; assay: Western blotting of AMPK-mTOR pathway-related proteins; assay type: cell-based, human
Procedure: as §1

[4] = tested on: GSC11 orthotopic xenograft; assay: Orthotopic xenograft mouse model; assay type: in vivo, male athymic nude mice; conditions: stained tumors
Procedure: Finally, the effect of the drags on the tumors of orthotopic xenograft mice was analyzed, 4- to 8-week-old male athymic nude mice (Central Lab. Animal Inc., Seoul, South Korea) were used for experiments. Mice were housed in micro-isolator cages under sterile conditions and observed for at least 1 week before study initiation to ensure proper health. Lighting, temperature, and humidity were controlled centrally. All experimental procedures were approved by Yonsei University College of Medicine Institutional Animal Care and Use Committee. Mice were anesthetized with a solution of Zoletil® (30 mg/kg; Virbac Korea, Seoul, South Korea) and xylazine (10 mg/kg; Bayer Korea, Seoul, South Korea) delivered intraperitoneally. GSC11 were implanted into the right frontal lobe of nude mice using a guide-screw system within the skull. Mice received 5×10^5 cells via a Hamilton syringe (Dongwoo Science Co., Seoul, South Korea) inserted to a depth of 4.5 mm. Then, 15 mg/kg of HL156A, 66.6 mg/kg of TMZ, and their combination were administrated to mice (n=5 per group). HL156A was given to mice by oral administration every other day until the duration of the experiment and TMZ was administrated intraperitoneally, for 5 days from the day of tumorsphere injection. The body weight of mice was checked every other day. […]

GSC11 = assay: 18F-FDG uptake (cellular metabolism); assay type: cell-based, human; conditions: 15 minutes incubation, radioactivity normalized to protein content
Procedure: In order to assess the effect of drugs on the cellular metabolism, ^18F-FDG uptake was examined, GSC11 were plated on 12-well plates with 3×10^5 cells per well for 24 hours. The medium was changed to a glucose-free DMEM medium (Gibco, Invitrogen Korea, Seoul, South Korea) containing approximately 0.5 μCi of ^18F-FDG, followed by incubation for 15 minutes. The cells were washed with phosphate-buffered saline 3 times and 0.1 ml of lysis buffer was added to each well. The lysed cells were then harvested to measure the amount of radioactivity by Wallac 148 Wizard 3 gamma-counter (PerkinElmer Life and, Analytical Science, Shelton, Conn., USA). The radioactivity measured was normalized to protein content.

G-GSC11 spheroids = assay: 3D collagen I matrix invasion assay; assay type: cell-based, human
Procedure: The G-GSC11s grown in spheroid were cultured in collagen I matrices using polydimethylsiloxane (PDMS)-based micro-wells (diameter and depth of microwells: […] and 500 μm). The microwells were treated with a 1% poly(ethyleneimine) (Sigma-Aldrich, St. Louis, Mo., USA) solution for 10 minutes followed by 0.1% glutaraldehyde (Sigma-Aldrich, St. Louis, Mo., USA) for 30 minutes and washed with PBS overnight lo make PDMS wells adherent to collagen. The 4 mg/ml collagen I matrices are prepared from high-concentration rat tail collagen I (BD Bioscience, CA, USA) using the recommended manual provided by the manufacturer. Briefly, the amounts of 10× phosphate buffered saline (PBS), 1N NaOH, sterile dH2O, and collagen I were mixed to create gels based on the desired final concentration. The solution was well mixed and kept at 4° C. before use. To encapsulate G-GSC11 spheroid, 10 μl of a collagen I solution (4 mg/ml) were pipetted into the micro-well, single G-GSC11 spheroid was placed onto collagen I matrices from the culture plate, and 10 μl of a collagen I solution (4 mg/ml) was dropped onto G-GSC11 spheroid. The platform was incubated at 37° C. and 5% CO2 for 30 minutes. The cell viability was characterized by staining G-GSC11 spheroid with 8 μM Ethidium homodimer-1 (Invitrogen Korea, Seoul, South Korea) for 30 minutes at 37° C. before implantation in collagen matrix. After fall gelation, a superlayer of culture medium consisting of DMEM/F-12 with 2% 1×B27, 20 ng/ml 0.02% bFGF, 20 ng/ml 0.2% EGF, and 1% antibiotic-antimycotic solution (100× Gibco, Invitrogen Korea, Seoul, South Korea) was then added. To observe drug effects, drugs were mixed with medium considering the final concentration of each drug. […] To quantitate the invasion assay, the maximal area covered by migrating edges of cells was used as a parameter for defining invasiveness (invaded area at certain time/spheroid area at initial time×100). Data was analyzed through image analysis software ImageJ (NIH, Bethesda, Md., USA).

stem cell = assay: MTT cell viability assay; assay type: cell-based; conditions: treated for 5 days, sublethal dose
Procedure: The effect of HL156A, TMZ, and combined HL156A and temozolomide on the survival of cells was determined by 3-(4,5-dimethylthiazol-2-yl)-2,5-diphenyl tetrazolium bromide (MTT) assay. Cells were seeded in 96-well plates and incubated at 37° C. for 24 hours and treated with HL156A, TMZ, and the combination thereof for 5 days. MTT reagent (10 μl/well) was added, incubated at 37° C. for 4 hours and the absorbance was measured at 490 nm. Each experiment was repeated three times and the results were expressed as % viable cells over control.

SMILES: N=C(NC(=N)N1CCCC1)Nc1ccc(OC(F)(F)F)cc1 [HL156A, N—(N-(4-(trifluoromethoxy)phenyl)carbamimidoyl)pyrrolidine-1-carboximidamide]
- expression of β-catenin, zeb1, and N-cadherin (EMT-related markers) [1]: altered; also recorded: diminished
- number of neurospheres (GSC11 and X01 cells): markedly decreased
- expression of stemness markers (CD133, OCT 3/4, Sox-2, Notch 1, Notch 2) [2]: Decreased expression
- neuro-glial differentiation (expression of olig2, Tuj1, GFAP) (GSC11 and X01): did not promote
- AMPK activation and consequent mTOR inhibition [3]: did not show expected AMPK activation
- tumor margin versus control [4]: less irregular margin
- 18F-FDG uptake (GSC11): markedly decreased
- cell viability during the invasion experiment (G-GSC11 spheroids): no significant cell death
- invasiveness (G-GSC11 spheroids; implanted cells and drugs together (FIG. 3A)): decreased invasiveness; also recorded: lesser degree of invasiveness
- invasiveness (G-GSC11 spheroids; pre-implanted, drug treatment 12 hours after implantation (FIG. 3B)): decreased invasiveness
- cell viability (% viable cells over control) (stem cell): minimal effect

From patent US9539238B2, “Pharmaceutical composition comprising a biguanide derivative as an active ingredient for preventing or treating glioblastoma” (ImmunoMet Therapeutics, Inc., priority 2015, dated 2017)
